Data taken from patent EP2646421B1, “7-NITRO-5-PHENYL-1-(PYRROLIDIN-1-YLMETHYL)-1H-BENZO[E][1,4]DIAZEPIN-2(3H)-ONE AND OTHER BENZODIAZEPINE DERIVATIVES” (Pignataro, Giuseppe, priority 2010, dated 2012).

How the values were obtained:
Test in all cases: Na+-dependent 45Ca2+ uptake and efflux on NCX1/NCX3 chimera
Assay type in all cases: cell-based
N1-109/133 = target: T1, N1-109/133 (Canis lupus familiaris, UniProt P23685, N157G/T159I/V150L); settings: 10 nM; NCX1 region 109-133 (α1) substituted with NCX3 segment
T1 construct: expressed in transfected cells
Excerpt: (§1) To deeper investigate on the regions and amino acids present on NCX1 responsible for the interaction with neurounina-1 compound, we utilized chimeric and site-mutated proteins. In particular, we generate chimeric proteins with a large sequence of NCX1 and some regions of NCX3 protein. […] By using the chimeric technique it is possible to determine the importance of NCX1 regions by substituting with analogue segments of NCX3 protein. […] Therefore, these two regions result to be involved in the pharmacological modulation of NCX1 from neurounina-1 compound.
(§2) All experiments aimed to identify the binding site of neurounina-1 were performed on BHK cells stably transfected with a single NCX chimera or mutant.
(§3) The activity of the Na^+/Ca^2+ exchanger was measured by means of ^45Ca^2+ radiotracer variations in the cytoplasm of cells exposed to a protocol stimulating the forward or the reverse mode of the antiporter. The BHK cells expressing each mutated or non-mutated NCX isoform were cultured in 12-well dishes and incubated in 145 mM NaCl for 10 minutes and then in a medium containing only 145 mM N-Methyl D-glucamine (NMDG) and 10 µM of ^45Ca^2+. This rapid substitution of the medium from a high level of Na^+ to another one without Na^+ allow the ^45Ca^2+ influx (reverse mode). Before the medium substitution cells was incubated with 1 mM ouabain, a Na^+/K^+ pump inhibitor, and 10 µM monensin, a ionophore for extracellular Na^+. After 30 seconds incubation, cells were washed with an ice-cold solution containing 2 mM La^3+ to stop ^45Ca^2+ uptake. The medium was removed and cells were subsequently lysed with 0.1 N NaOH and aliquots were taken to determine radioactivity and protein content.
(§4) In order to measure NCX activity in the forward mode, cells were firstly loaded with ^45Ca^2+ and subsequently exposed to a chemical protocol to stimulate the efflux of the radiotracer in the extracellular medium. […] After 60 second, cells were lysed with […] NaOH and aliquots were taken to determine cytoplasmatic radioactivity.

[1] = tested on: N3-(109/133-788/829) chimera; settings: 10 nM; NCX3 with α1 and α2 regions of NCX1
Excerpt: as §1, §2, §3, §4

N1-788/829 = target: T2, N1-788/829 (Canis lupus familiaris, UniProt P23685, L840F/Q858V/T855L/V852A); settings: 10 nM; NCX1 region 788-829 (α2) substituted with NCX3 segment
T2 construct: expressed in transfected cells
Excerpt: as §1, §2, §3, §4

T1 sequence (P23685 33-970 V150L/N157G/T159I): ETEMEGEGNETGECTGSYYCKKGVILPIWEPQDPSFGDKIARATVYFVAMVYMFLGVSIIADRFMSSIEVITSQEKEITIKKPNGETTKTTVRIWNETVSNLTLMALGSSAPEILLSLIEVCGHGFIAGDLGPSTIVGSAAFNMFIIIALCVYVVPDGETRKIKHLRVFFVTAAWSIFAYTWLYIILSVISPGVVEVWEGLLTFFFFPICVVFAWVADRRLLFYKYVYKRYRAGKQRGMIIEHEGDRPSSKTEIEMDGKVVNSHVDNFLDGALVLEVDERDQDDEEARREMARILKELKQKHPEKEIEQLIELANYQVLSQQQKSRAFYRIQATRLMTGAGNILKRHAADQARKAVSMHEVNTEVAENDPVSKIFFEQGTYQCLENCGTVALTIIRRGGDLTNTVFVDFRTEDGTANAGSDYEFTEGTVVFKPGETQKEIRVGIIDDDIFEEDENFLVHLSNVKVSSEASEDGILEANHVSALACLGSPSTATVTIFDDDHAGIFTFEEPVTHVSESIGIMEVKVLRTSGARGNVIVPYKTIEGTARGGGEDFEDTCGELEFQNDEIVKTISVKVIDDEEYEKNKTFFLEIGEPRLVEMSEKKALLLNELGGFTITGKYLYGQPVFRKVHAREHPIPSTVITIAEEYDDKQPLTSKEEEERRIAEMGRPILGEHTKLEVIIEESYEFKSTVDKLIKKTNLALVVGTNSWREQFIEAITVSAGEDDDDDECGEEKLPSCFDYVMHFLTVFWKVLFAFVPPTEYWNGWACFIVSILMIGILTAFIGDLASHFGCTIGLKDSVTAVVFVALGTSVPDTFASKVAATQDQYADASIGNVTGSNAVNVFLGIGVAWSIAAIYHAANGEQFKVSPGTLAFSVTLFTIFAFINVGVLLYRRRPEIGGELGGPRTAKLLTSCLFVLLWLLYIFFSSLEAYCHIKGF
T2 sequence (P23685 33-970 L840F/V852A/T855L/Q858V): as the sequence (P23685 33-970 V150L/N157G/T159I) above, with L118V, G125N, I127T, L808F, V820A, T823L, Q826V counted along it

O=C1CN=C(c2ccccc2)c2cc([N+](=O)[O-])ccc2N1CN1CCCC1 [neurounina-1, 7-nitro-5-phenyl-1-(pyrrolidin-1-ylmethyl)-1H-benzo[e][1,4]diazepin-2(3H)-one]
pharmacological effect on N1-109/133 chimera (N1-109/133): removed the pharmacological effect
activity of N3-(109/133-788/829) chimera [1]: significantly increased activity
pharmacological effect on N1-788/829 chimera (N1-788/829): removed the pharmacological effect
